Values of other authors, collected in patent US12636273B2, “Compositions for pathogenesis-directed therapy and treatments of skin diseases and disorders” (YALE UNIVERSITY, priority 2019, dated 2026).

System: CHILD syndrome skin lesions
Conditions: topical application

Question: With `CC(C)CCC[C@@H](C)[C@H]1CC[C@H]2[C@@H]3CC=C4C[C@@H](O)CC[C@]4(C)[C@H]3CC[C@]12C` [cholesterol] as the molecule, how does the “effect on skin lesions / phenotype” value read?
Answer: did not correct the phenotype
